Molecules are shown by their SMILES. A value given as a limit tells only on which side of the number the result lay.

By IC50 is commonly meant the concentration needed to halve the response being measured. A higher IC50 goes with a need for much substance.

For the test, the target named is T1, Ectonucleotide pyrophosphatase/phosphodiesterase family member 1 (Mus musculus, UniProt P06802).
T1 sequence (P06802 whole entry): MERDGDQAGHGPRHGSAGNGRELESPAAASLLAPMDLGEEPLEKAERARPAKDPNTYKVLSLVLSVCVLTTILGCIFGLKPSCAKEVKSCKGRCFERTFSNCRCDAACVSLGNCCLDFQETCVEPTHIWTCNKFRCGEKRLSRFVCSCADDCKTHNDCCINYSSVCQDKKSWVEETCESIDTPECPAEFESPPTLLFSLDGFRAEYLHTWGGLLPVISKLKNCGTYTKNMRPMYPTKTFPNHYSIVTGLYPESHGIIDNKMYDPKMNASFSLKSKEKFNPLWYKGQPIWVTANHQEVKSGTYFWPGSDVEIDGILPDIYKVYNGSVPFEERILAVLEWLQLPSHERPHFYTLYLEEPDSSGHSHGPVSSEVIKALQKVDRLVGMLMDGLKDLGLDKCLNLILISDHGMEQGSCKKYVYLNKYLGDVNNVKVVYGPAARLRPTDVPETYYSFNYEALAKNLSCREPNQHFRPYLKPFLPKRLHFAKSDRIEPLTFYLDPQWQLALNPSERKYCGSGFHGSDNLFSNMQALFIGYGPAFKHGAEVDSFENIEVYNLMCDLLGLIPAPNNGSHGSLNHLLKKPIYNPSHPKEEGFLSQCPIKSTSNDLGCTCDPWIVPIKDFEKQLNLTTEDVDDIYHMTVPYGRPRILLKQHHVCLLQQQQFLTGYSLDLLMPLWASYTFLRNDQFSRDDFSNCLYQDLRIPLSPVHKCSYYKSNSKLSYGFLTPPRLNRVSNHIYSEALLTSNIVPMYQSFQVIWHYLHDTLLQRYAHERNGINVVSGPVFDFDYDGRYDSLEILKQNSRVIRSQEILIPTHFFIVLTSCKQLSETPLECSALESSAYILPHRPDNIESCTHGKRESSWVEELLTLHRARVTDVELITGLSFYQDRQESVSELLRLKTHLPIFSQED
Description: ENPP1 Enzyme Activity Assay. Here is the method: The AMP degradation product was converted to ATP, which was detected using luciferase. To achieve this, an enzyme mixture of polyphosphate:AMP phosphotransferase (PAP) and myokinase was prepared according to Goueli et al. in EP2771480. Briefly, PAP was diluted to 2 mg/mL in buffer containing 50 mM Tris pH 7.5, 0.1% NP-40. Myokinase was diluted to 2 KU/mL in buffer containing 3.2 mM ammonium sulfate pH 6.0, 1 mM EDTA, and 4 mM polyphosphate. The heat-inactivated ENPP1 reaction was incubated with PAP (0.01 μg/μL) and myokinase (0.0075 U/μL) in buffer containing 40 mM Tris pH 7.5, 0.05 mg/mL Prionex, 5 mM MgCl2, 20 μM polyphosphate, and 0.15 g/L phenol red (for ease of pipetting) for 3 hours (total reaction volume=20 μL). CellTiterGlo (20 uL) was added to the reaction according to manufacturer's protocol and luminescence was measured.
For `COc1cccc2c(NCc3ccc(C(=O)NO)cc3)ncnc12` [US20250059218, Compound 104], the IC50 is above 100 nM.

`COc1ccc2c(N3CCC(CCP(=O)(O)O)CC3)c(C#N)cnc2c1` [US20250059218, Compound 43] yielded an IC50 below 50 nM.

Compound `COc1ccc2c(NCc3ccc(B(O)O)cc3)c(C#N)cnc2c1` [US20250059218, Compound 213] displayed an IC50 above 100 nM.

Regarding `COc1cc2ncnc(Nc3ccc(P(=O)(O)O)cc3)c2cc1OC` [US20250059218, Compound 2], the IC50 is above 100 nM.

`COc1ccc2c(N3CCC(CCOP(O)(O)=S)CC3)c(C#N)cnc2c1` [US20250059218, Compound 215]: the IC50 is above 100 nM.

`COc1cc(OC)c2ncc(C#N)c(N3CCC(CCP(=O)(O)O)CC3)c2c1` [US20250059218, Compound 46] showed a half-inhibitory concentration (IC50) above 100 nM.

The compound `COc1cc2nccc(N3CCC(CCP(=O)(O)O)CC3)c2cc1OC` [US20250059218, Compound 201] displayed an IC50 above 100 nM.

Turning to `COc1cc2ncnc(NCc3ccc(C(=O)NO)cc3)c2cc1OC` [US20250059218, Compound 101], the IC50 is above 100 nM.

In turn, `COc1cc2ncc3ncn(Cc4ccc(CP(=O)(O)O)cc4)c3c2cc1OC` [US20250059218, Compound 218] gave an IC50 above 100 nM.

The compound `COc1cccc2c(NCc3ccc(C(=O)NO)cc3)c(C#N)cnc12` [US20250059218, Compound 220] came in with an IC50 above 100 nM.

For `COc1cccc2c(NCc3ccc(P(=O)(O)O)cc3)c(C#N)cnc12` [US20250059218, Compound 52], the IC50 is below 50 nM.

On to `COc1cccc2c(N3CCC(CCP(=O)(O)O)CC3)c(C#N)cnc12` [US20250059218, Compound 45], for which the IC50 was below 50 nM.

Consider `COc1cccc2c(NCc3ccc(CP(=O)(O)O)cc3)c(C#N)cnc12` [US20250059218, Compound 211], for which the IC50 was below 50 nM.

For the compound `COc1cc2ncc(F)c(N3CCC(CCP(=O)(O)O)CC3)c2cc1OC` [US20250059218, Compound 208], the IC50 is above 100 nM.

The compound `COc1ccc2c(N3CCC(CCB(O)O)CC3)c(C#N)cnc2c1` [US20250059218, Compound 217] displayed an IC50 above 100 nM.

Regarding `COc1ccc2c(N3CCC(COP(O)(O)=S)CC3)c(C#N)cnc2c1` [US20250059218, Compound 48], the IC50 was above 100 nM.

Take `COc1ccc2c(N3CCC(CCCP(=O)(O)O)CC3)c(C#N)cnc2c1` [US20250059218, Compound 209]: the IC50 was below 50 nM.

As to `COc1cccc2c(NCc3ccc(P(=O)(O)O)cc3)ncnc12` [US20250059218, Compound 36], the IC50 is below 50 nM.

Compound `COc1cc2ncc(C#N)c(NCc3ccc(P(=O)(O)O)cc3)c2cc1OC` [US20250059218, Compound 203] came in with an IC50 below 50 nM.

`COc1cccc2c(N3CCC(CCB(O)O)CC3)c(C#N)cnc12` [US20250059218, Compound 216] gave an IC50 above 100 nM.

For `COc1cccc2c(N3CCC(COP(O)(O)=S)CC3)c(C#N)cnc12` [US20250059218, Compound 50], the IC50 is above 100 nM.

In the case of `COc1cc2ncc(C#N)c(N3CCC(CCP(=O)(O)O)CC3)c2cc1OC` [US20250059218, Compound 42], the IC50 was below 50 nM.

Consider `COc1cccc2c(N3CCC(CCCP(=O)(O)O)CC3)c(C#N)cnc12` [US20250059218, Compound 210], for which the IC50 was below 50 nM.

As to `COc1ccc2c(NCc3ccc(B(O)O)cc3)ncnc2c1` [US20250059218, Compound 103], the IC50 is above 100 nM.

`COc1cc2ncc(N)c(N3CCC(CCP(=O)(O)O)CC3)c2cc1OC` [US20250059218, Compound 205] gave an IC50 below 50 nM.

As for `COc1ccc2c(NCc3ccc(P(=O)(O)O)cc3)c(C#N)cnc2c1` [US20250059218, Compound 204], the IC50 was below 50 nM.

The compound `COc1ccc2c(NCc3ccc(C(=O)NO)cc3)c(C#N)cnc2c1` [US20250059218, Compound 219] came in with an IC50 above 100 nM.

The compound `COc1cc2ncnc(NCc3ccc(CP(=O)(O)O)cc3)c2cc1OC` [US20250059218, Compound 5] returned an IC50 below 50 nM.

On to `COc1cccc2c(NCc3ccc(P(=O)(O)O)cc3)nc(/C=C/c3cccnc3)nc12` [US20250059218, Compound 53], for which the IC50 was below 50 nM.

Regarding `COc1cc2ncnc(NCc3ccc(P(=O)(O)O)cc3)c2cc1OC` [US20250059218, Compound 4], the IC50 was below 50 nM.

Turning to `COc1cccc2c(NCc3ccc(B(O)O)cc3)c(C#N)cnc12` [US20250059218, Compound 214], the IC50 was above 100 nM.

With `COc1cc2ncc(Cl)c(N3CCC(CCP(=O)(O)O)CC3)c2cc1OC` [US20250059218, Compound 207], the IC50 was above 100 nM.

Consider `COc1cccc2c(NCc3ccc(B(O)O)cc3)ncnc12` [US20250059218, Compound 102], for which the IC50 was below 50 nM.
